According to ChEMBL document CHEMBL5705887, “Distinct concentration-dependent effects of the polo-like kinase 1-specific inhibitor GSK461364A, including differential effect on apoptosis” (Cancer Res, 2009):
Activity calls are given as the source filed them. The rule behind the calls is not given here.

How the values were obtained:
[1] = target: Cyclin-dependent kinase 1/cyclin B1 (Homo sapiens) (UniProt P06493+P14635); assay: Inhibition of C-terminal his6-tagged recombinant human CDK1/full length N-terminal GST-tagged recombinant human cyclin B expressed in baculovirus Sf21 insect cells at 10 uM relative to control
Cyclin-dependent kinase 1/cyclin B1 (Homo sapiens), sequence (P06493 whole entry, looked up): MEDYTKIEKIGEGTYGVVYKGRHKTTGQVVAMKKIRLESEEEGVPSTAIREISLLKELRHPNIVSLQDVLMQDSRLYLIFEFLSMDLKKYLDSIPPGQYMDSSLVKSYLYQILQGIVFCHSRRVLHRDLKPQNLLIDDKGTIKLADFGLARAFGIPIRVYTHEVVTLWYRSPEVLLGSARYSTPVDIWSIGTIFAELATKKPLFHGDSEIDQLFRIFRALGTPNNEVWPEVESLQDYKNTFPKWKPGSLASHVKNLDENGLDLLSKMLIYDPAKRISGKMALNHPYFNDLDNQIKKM
Cyclin-dependent kinase 1/cyclin B1 (Homo sapiens), sequence (P14635 whole entry, looked up): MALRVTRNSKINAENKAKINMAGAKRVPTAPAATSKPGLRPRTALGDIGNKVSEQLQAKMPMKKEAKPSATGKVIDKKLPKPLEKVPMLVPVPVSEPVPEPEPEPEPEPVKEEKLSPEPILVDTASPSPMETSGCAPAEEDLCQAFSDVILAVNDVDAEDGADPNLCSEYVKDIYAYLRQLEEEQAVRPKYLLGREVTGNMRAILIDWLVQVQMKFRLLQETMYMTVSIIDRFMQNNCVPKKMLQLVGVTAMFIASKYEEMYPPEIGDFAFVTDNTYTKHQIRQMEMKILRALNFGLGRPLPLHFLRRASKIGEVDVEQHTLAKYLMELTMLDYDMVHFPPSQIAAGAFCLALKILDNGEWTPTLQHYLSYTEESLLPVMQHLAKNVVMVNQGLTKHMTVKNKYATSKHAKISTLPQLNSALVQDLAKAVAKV

[2] = tested on: COLO 205; assay: Antitumor activity against human COLO 205 cells xenografted in Nude mouse assessed as increase in pIk1 level at 50 to 100 mg/kg, ip administered one dose every 2 day repeated for 12 days by immunohistochemistry analysis; type: functional, organism-based; details: dose 50-100 mg/kg, time 12.0 day
[3] = tested on: SK-OV-3; assay: Antiproliferative activity against human SK-OV-3 cells assessed as growth inhibition incubated for 72 hrs by celltiter-glo assay; type: functional
[4] = tested on: HL-60; assay: Antiproliferative activity against human HL-60 cells assessed as of viable cell signal at minimum maximum cell growth incubated for 72 hrs by celltiter-glo assay relative to control; type: functional
[5] = tested on: NCI-H322M; assay: Antiproliferative activity against human NCI-H322M cells assessed as of viable cell signal at minimum maximum cell growth incubated for 72 hrs by celltiter-glo assay relative to control; type: functional
[6] = tested on: SK-BR-3; assay: Antiproliferative activity against human SK-BR-3 cells assessed as growth inhibition incubated for 72 hrs by celltiter-glo assay; type: functional
[7] = tested on: BT-549; assay: Antiproliferative activity against human BT-549 cells assessed as growth inhibition incubated for 72 hrs by celltiter-glo assay; type: functional
[8] = tested on: ZR-75-1; assay: Antiproliferative activity against human ZR-75-1 cells assessed as growth inhibition at 10 to 250 nmol/L incubated for 72 hrs by celltiter-glo assay; type: functional, cell-based; details: dose 10-250 nmol/L
[9] = tested on: A498; assay: Antiproliferative activity against human A498 cells assessed as growth inhibition incubated for 72 hrs by celltiter-glo assay; type: functional
[10] = tested on: SCLC; assay: Antiproliferative activity against human SCLC cells assessed as viable cell signal at maximum growth inhibition incubated for 72 hrs by celltiter-glo assay relative to control; type: functional
[11] = tested on: PC-3; assay: Antiproliferative activity against human PC-3 cells assessed as viable cell signal at maximum growth inhibition incubated for 72 hrs by celltiter-glo assay relative to control; type: functional
[12] = Antiproliferative activity against human A375P cells assessed as growth inhibition incubated for 72 hrs by celltiter-glo assay; type: functional
[13] = tested on: MDA-MB-453; assay: Antiproliferative activity against human MDA-MB-453 cells assessed as growth inhibition incubated for 72 hrs by celltiter-glo assay; type: functional
[14] = tested on: H322; assay: Antiproliferative activity against human H322 cells assessed as growth inhibition incubated for 72 hrs by celltiter-glo assay; type: functional; details: NCI-H322
[15] = tested on: A704; assay: Antiproliferative activity against human A704 cells assessed as viable cell signal at maximum growth inhibition incubated for 72 hrs by celltiter-glo assay relative to control; type: functional
[16] = tested on: SK-MEL-2; assay: Antiproliferative activity against human SK-MEL-2 cells assessed as growth inhibition incubated for 72 hrs by celltiter-glo assay; type: functional
[17] = tested on: HCT-116; assay: Antiproliferative activity against human HCT-116 cells assessed as viable cell signal at maximum growth inhibition incubated for 72 hrs by celltiter-glo assay relative to control; type: functional
[18] = tested on: ZR-75-1; assay: Antiproliferative activity against human ZR-75-1 cells assessed as growth inhibition at > 250 nmol/L incubated for 72 hrs by celltiter-glo assay; type: functional, cell-based
[19] = tested on: PANC-08-13; assay: Antiproliferative activity against human PANC-08-13 cells assessed as viable cell signal at maximum growth inhibition incubated for 72 hrs by celltiter-glo assay relative to control; type: functional
[20] = tested on: NCI-H522; assay: Antiproliferative activity against human NCI-H522 cells assessed as viable cell signal at maximum growth inhibition incubated for 72 hrs by celltiter-glo assay relative to control; type: functional
[21] = target: NUAK family SNF1-like kinase 1 (Homo sapiens) (UniProt O60285); assay: Inhibition of full length N-terminal his6-tagged recombinant human ARK5 (2 to end residues) expressed in baculovirus Sf21 cells at 10 uM relative to control
NUAK family SNF1-like kinase 1 (Homo sapiens), sequence (O60285 whole entry): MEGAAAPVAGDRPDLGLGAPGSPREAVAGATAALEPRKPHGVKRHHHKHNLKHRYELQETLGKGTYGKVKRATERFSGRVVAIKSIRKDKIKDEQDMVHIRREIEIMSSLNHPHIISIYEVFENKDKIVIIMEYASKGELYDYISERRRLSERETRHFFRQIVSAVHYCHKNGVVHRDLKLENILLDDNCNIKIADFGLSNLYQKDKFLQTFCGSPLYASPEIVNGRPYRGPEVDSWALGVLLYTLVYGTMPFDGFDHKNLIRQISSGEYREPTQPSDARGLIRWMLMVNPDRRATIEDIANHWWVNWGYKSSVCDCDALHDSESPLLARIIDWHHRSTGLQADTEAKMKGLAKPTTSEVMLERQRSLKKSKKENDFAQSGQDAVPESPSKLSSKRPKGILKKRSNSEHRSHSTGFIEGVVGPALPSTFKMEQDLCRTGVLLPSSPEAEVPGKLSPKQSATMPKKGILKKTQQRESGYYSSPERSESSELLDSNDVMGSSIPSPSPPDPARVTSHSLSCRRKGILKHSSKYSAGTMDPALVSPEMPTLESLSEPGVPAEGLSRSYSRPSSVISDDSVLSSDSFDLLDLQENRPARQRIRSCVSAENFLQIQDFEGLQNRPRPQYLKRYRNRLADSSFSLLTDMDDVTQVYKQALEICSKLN

[22] = target: Serine/threonine-protein kinase D1 (Homo sapiens) (UniProt Q15139); assay: Inhibition of recombinant human PKC-mu at 10 uM relative to control
Serine/threonine-protein kinase D1 (Homo sapiens), sequence (Q15139 whole entry): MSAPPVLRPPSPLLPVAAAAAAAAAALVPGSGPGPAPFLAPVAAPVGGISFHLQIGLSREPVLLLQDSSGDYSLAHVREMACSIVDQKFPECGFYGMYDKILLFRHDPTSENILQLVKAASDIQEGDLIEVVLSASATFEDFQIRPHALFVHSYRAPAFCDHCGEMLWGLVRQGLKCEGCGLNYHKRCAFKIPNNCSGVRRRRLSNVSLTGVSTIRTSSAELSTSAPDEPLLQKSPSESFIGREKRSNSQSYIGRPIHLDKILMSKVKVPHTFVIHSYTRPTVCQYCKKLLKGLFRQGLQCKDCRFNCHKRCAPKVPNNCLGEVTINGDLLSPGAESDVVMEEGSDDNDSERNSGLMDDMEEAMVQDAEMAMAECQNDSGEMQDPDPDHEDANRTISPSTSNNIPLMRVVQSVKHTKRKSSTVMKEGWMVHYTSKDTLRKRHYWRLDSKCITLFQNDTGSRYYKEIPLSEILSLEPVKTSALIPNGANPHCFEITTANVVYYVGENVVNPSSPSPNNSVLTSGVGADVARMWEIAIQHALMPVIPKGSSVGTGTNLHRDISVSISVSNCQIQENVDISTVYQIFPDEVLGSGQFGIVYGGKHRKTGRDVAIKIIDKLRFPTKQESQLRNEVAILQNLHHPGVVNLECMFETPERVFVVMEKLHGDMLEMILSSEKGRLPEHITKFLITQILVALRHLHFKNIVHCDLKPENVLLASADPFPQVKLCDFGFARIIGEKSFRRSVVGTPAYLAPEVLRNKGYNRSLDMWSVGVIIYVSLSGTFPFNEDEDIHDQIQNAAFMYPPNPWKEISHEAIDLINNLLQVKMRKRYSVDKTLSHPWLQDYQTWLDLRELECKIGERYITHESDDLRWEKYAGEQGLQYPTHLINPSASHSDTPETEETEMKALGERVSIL

[23] = tested on: T-24; assay: Antiproliferative activity against human T24 cells assessed as growth inhibition incubated for 72 hrs by celltiter-glo assay; type: functional
[24] = tested on: MX1; assay: Antiproliferative activity against human MX1 cells assessed as growth inhibition incubated for 72 hrs by celltiter-glo assay; type: functional
[25] = tested on: A-431; assay: Antiproliferative activity against human A-431 cells assessed as growth inhibition incubated for 72 hrs by celltiter-glo assay; type: functional
[26] = tested on: ZR-75-1; assay: Growth inhibition of human ZR-75-1 cells assessed as caspase-3/caspase-7 activation at 0.1 nmol/L incubated for 5 to 7 days by […]; type: functional, cell-based; details: time 5-7 day
[27] = tested on: BXPC-3; assay: Antiproliferative activity against human BXPC-3 cells assessed as of viable cell signal at minimum maximum cell growth incubated for 72 hrs by celltiter-glo assay relative to control; type: functional
[28] = tested on: HeLa; assay: Antiproliferative activity against human HeLa cells assessed as of viable cell signal at minimum maximum cell growth incubated for 72 hrs by celltiter-glo assay relative to control; type: functional
[29] = tested on: Jurkat; assay: Antiproliferative activity against human Jurkat cells assessed as of viable cell signal at minimum maximum cell growth incubated for 72 hrs by celltiter-glo assay relative to control; type: functional

In the case of C[C@@H](Oc1cc(-n2cnc3ccc(CN4CCN(C)CC4)cc32)sc1C(N)=O)c1ccccc1C(F)(F)F [GSK-461364], the inhibition [1] is reported as 66%, the Activity [2] is reported as “Active” and the GI50 [3] is reported as 0.0289 µM. The Emin [4] was 15.3%, the Emin [5] was 260.3% and the GI50 [6] was 0.0158 µM. The GI50 [7] was 0.0231 µM, the Activity [8] was “inactive” and the GI50 [9] was 0.0404 µM. For the same compound, the Emax [10] was 834%, the Emax [11] was 582% and the GI50 [12] was 0.0236 µM. It also gave a GI50 [13] of 0.0135 µM, a GI50 [14] of 0.0203 µM and an Emax [15] of 255%. For the same compound, the GI50 [16] was 0.014 µM, the Emax [17] was 545% and the Activity [18] was “Active”. The Emax [19] was 256%, the Emax [20] was 264% and the inhibition [21] was 79%. It also gave an inhibition [22] of 53%, a GI50 [23] of 0.0423 µM and a GI50 [24] of 0.0121 µM. For the same compound, the GI50 [25] was 0.0166 µM, the Activity [26] was “Active” and the Emin [27] was 103.3%. It also gave an Emin [28] of 32.2% and an Emin [29] of 2.2%.
